Assay results from patent US10907168B2, “Jasmonic acid pathway activator” (MEDICAGO INC., priority 2015, dated 2021).

What was measured:
[1] = system: C5-1 light and heavy chain mRNA; assay: Real-time RT PCR of C5-1 light and heavy chain transcripts; format: in vivo, Nicotiana benthamiana; conditions: 1 mM spray, 24 h before infiltration
[2] = system: RuBisCO large and small subunit; assay: RuBisCO large and small subunit levels, immunodetection and densitometry; format: in vivo, Nicotiana benthamiana; conditions: for depletion of RuBisCO large and small subunit pools, less than in controls: uninfiltrated leaves, seven days post-treatment
Procedure: FIGS. 1a-1d show total soluble proteins (TSP), 1-D proteome profile and RuBisCO subunit levels in agroinfiltrated and control N. benthamiana leaves treated with the stress elicitor MeJA 24 h before infection. […] FIGS. 1c and 1d show relative amounts of RuBisCO large (RbcL; FIG. 1c) and small (RbsS; FIG. 1d) subunits in MeJA-treated leaves as determined by densitometry following immunodetection with appropriate antibodies. Protein signals on the immunoblots were quantified using the Phoretix 2-D Expression software v. 2005 (NonLinear USA, Durham N.C., U.S.A.) after scanning nitrocellulose membranes with a Microtek ScanMaker II digitalizer (Microtek Laboratory, Torrance Calif., U.S.A.). Data are expressed as relative levels compared to non-treated controls assigned an arbitrary level of 1.0. Each bar on panels (a) and (c) is the mean of three independent (leaf replicate) values±SE. Infiltrated leaves were transfected with A. tumefaciens cells 24 h post-MeJA treatment. All plant samples were harvested seven days post-MeJA treatment (i.e. six days post-agroinfiltration for the transfected plants).
Forty-two day-old N. benthamiana plants grown in greenhouse were used for the experiments. Each plant was sprayed evenly with 50 ml of 0.5 mM, 1 mM or 2 mM MeJA in water containing 0.1% (v/v) Triton X-100 (Sigma-Aldrich, Mississauga ON, Canada), or with 50 ml of 1 mM arachidonic acid (Girard et al., 2007) in the same solvent, and transferred for seven days in a Conviron growth chamber (Conviron, Winnipeg MB, Canada). Plants sprayed with 50 ml of 0.1% (v/v) Triton X-100 in water were used in parallel as negative controls to avoid confounding effects due to experimental conditions. Two or three 1-cm^2 leaf discs were harvested from the third main stem leaf (see Robert et al., 2013) after seven days, as source material for protein and RNA extraction. The leaf samples were frozen immediately in liquid nitrogen and stored at −80° C. until protein or RNA extraction. Three to five biological (plant) replicates were used for each treatment, to allow for statistical treatment of the data. […]

A. tumefaciens = assay: Bacterial counts (CFU) in agroinfiltrated leaves; format: in vivo, Agrobacterium tumefaciens; conditions: control and treated leaves; after four or six days post-infiltration
Description: Two gene vectors were used for the agroinfiltration assays: an engineered pcambia2300 vector encoding the light and heavy chains of C5-1 fused to an N-terminal signal peptide sequence for cellular secretion (see Goulet et al., 2012 for details on gene construct); and the original (“empty”) pcambia2300 binary vector (CAMBIA, Canberra, Australia) as a control for agroinfection. The two binary vectors were electroporated into A. tumefaciens strain LBA4404 and the cultures were maintained in Luria-Bertani (LB) medium supplemented with 50 μg/ml kanamycin and 50 μg/ml rifampicin. For infiltration, bacteria were grown to stable phase at 28° C. to an OD600 of 1.0 and collected by centrifugation at 2,000 g. The bacterial pellets were resuspended in 10 mM 2-[N-morpholino] ethanesulfonic acid] (MES) buffer, pH 5.8, containing 100 μM acetosyringone and 10 mM MgCl2. Leaf infiltration was performed using a needle-less syringe as described earlier (D'Aoust et al., 2009), after mixing the C5-1 antibody (or empty vector) agrobacterial suspension with an equal volume of bacterial suspension carrying a binary vector for the protein silencing suppressor p19 (Voinnet et al., 2003). […] Bacterial loads in leaves were determined by the counting of CFU on LB agar plates coated with bacteria recovered at different moments from the third main stem leaf. […]

CC/C=C\C[C@H]1C(=O)CC[C@@H]1CC(=O)OC [MeJA, methyl jasmonate]
mRNA transcript numbers for C5-1 light and heavy chains compared with control leaf extracts [1]: about twofold
depletion of RuBisCO large and small subunit pools, less than in controls ([2]; 0.5 mM dose): ~40%
depletion of RuBisCO large and small subunit pools, less than in controls ([2]; 2 mM dose): more than 90%
RuBisCO large and small subunits, share of original content relative to untreated plants ([2]; agroinfiltrated leaves (empty vector, 24 h post-treatment), 1 or 2 mM, six days post-infection): less than 50%
bacterial counts (A. tumefaciens): less than a million
